What was measured:
Assay type in all cases: in vivo
[1] = system: Echinochloa crus-galli (ECHCG); experiment: Pre-emergence Test (glasshouse, percentage damage to the plant); conditions: 1000 g/ha unless otherwise stated; for percentage damage to the plant, ECHCG (five-point scale): Echinochloa crus-galli; for percentage damage to the plant, ECHCG: five-point scale
Zea mays (ZEAMX) [2] = experiment: Post-emergence Test (glasshouse, percentage damage to the plant); conditions: 1000 g/ha unless otherwise stated, evaluated after 13 days; for ZEAMX, percentage damage caused to the plant (five-point scale): post-emergence; for Post-emergence Test ZEAMX, percentage damage to the plant (five-point scale): post-emergence spray
Method in brief: (§1)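 Compound formulated in 50:50 acetone/water with 0.5% Tween 20 was diluted to an aqueous spray and applied at 1000 g/ha, unless otherwise stated, onto sown pots. Evaluation after 13 days gave percentage damage, banded into a 1–5 score.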

[3] = system: Ipomoea hederacea (IPOHE); experiment: as above; conditions: 1000 g/ha unless otherwise stated, evaluated after 13 days; for IPOHE, percentage damage caused to the plant (five-point scale): post-emergence; for Post-emergence Test IPOHE, percentage damage to the plant (five-point scale): post-emergence spray
Method in brief: as §1

[4] = system: Amaranthus retoflexus (AMARE); experiment: as above; conditions: 1000 g/ha unless otherwise stated, evaluated after 13 days; for AMARE, percentage damage caused to the plant (five-point scale): post-emergence; for Post-emergence Test AMARE, percentage damage to the plant (five-point scale): post-emergence spray
Method in brief: (§2)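 Percentage damage to the plant, assessed 13 days after application and scored 1–5 in 20% bands. Pots sown in standard soil received compound at 1000 g/ha unless otherwise stated, sprayed under 24/16 °C, 14 h light, 65% humidity.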

Setaria faberi (SETFA) [5] = experiment: as above; conditions: 1000 g/ha unless otherwise stated, evaluated after 13 days; for SETFA, percentage damage caused to the plant (five-point scale): post-emergence; for Post-emergence Test SETFA, percentage damage to the plant (five-point scale): post-emergence spray
Method in brief: as §1

[6] = system: Amaranthus palmeri (AMAPA); experiment: as above; conditions: post-emergence; 1000 g/ha unless otherwise stated; evaluated after 13 days
Method in brief: as §2

[7] = system: Amaranthus retoflexus (AMARE); experiment: Pre-emergence Test (glasshouse, percentage damage to the plant); conditions: 1000 g/ha unless otherwise stated; for percentage damage to the plant, AMARE (five-point scale): Amaranthus retoflexus; for percentage damage to the plant, AMARE: five-point scale
[8] = system: Ipomoea hederacea (IPOHE); experiment: as above; conditions: 1000 g/ha unless otherwise stated; for percentage damage to the plant, IPOHE (five-point scale): Ipomoea hederacea; for percentage damage to the plant, IPOHE: five-point scale
Zea mays (ZEAMX) [9] = experiment: as above; conditions: 1000 g/ha unless otherwise stated; for percentage damage to the plant, ZEAMX (five-point scale): Zea mays; for percentage damage to the plant, ZEAMX: five-point scale
Setaria faberi (SETFA) [10] = experiment: as above; conditions: 1000 g/ha unless otherwise stated; for percentage damage to the plant, SETFA (five-point scale): Setaria faberi; for percentage damage to the plant, SETFA: five-point scale
[11] = system: Amaranthus palmeri (AMAPA); experiment: as above; conditions: 1000 g/ha unless otherwise stated, Amaranthus palmeri
[12] = system: Abutilon theophrasti (ABUTH); experiment: as above; conditions: 1000 g/ha unless otherwise stated, five-point scale
[13] = system: Abutilon theophrasti (ABUTH); experiment: Post-emergence Test (glasshouse, percentage damage to the plant); conditions: post-emergence spray, 1000 g/ha unless otherwise stated, evaluated after 13 days
Method in brief: as §2

[14] = system: Echinochloa crus-galli (ECHCG); experiment: as above; conditions: post-emergence spray, 1000 g/ha unless otherwise stated, evaluated after 13 days
Method in brief: as §2

| Structure (SMILES) | percentage damage to the plant, ECHCG (five-point scale) [1] | ZEAMX, percentage damage caused to the plant (five-point scale) (Zea mays (ZEAMX) [2]) | IPOHE, percentage damage caused to the plant (five-point scale) [3] | AMARE, percentage damage caused to the plant (five-point scale) [4] | SETFA, percentage damage caused to the plant (five-point scale) (Setaria faberi (SETFA) [5]) | AMAPA, percentage damage caused to the plant (five-point scale) [6] | percentage damage to the plant, AMARE (five-point scale) [7] | percentage damage to the plant, IPOHE (five-point scale) [8] | percentage damage to the plant, ZEAMX (five-point scale) (Zea mays (ZEAMX) [9]) | percentage damage to the plant, SETFA (five-point scale) (Setaria faberi (SETFA) [10]) | percentage damage to the plant, AMAPA (five-point scale) [11] | other results |
| --- | --- | --- | --- | --- | --- | --- | --- | --- | --- | --- | --- | --- |
| CCn1c(C)c(-c2cc(C)ccc2C)c(=O)c(C(=O)O)c1-c1ccc(Cl)c(Cl)c1 [Compound 225, 2-(3,4-dichlorophenyl)-5-(2,5-dimethylphenyl)-1-ethyl-6-methyl-4-oxo-pyridine-3-carboxylic acid] | 1 (1=0-20%) | 1 (1=0-20%) | 1 (1=0-20%) | 4 (4=61-80%) | 1 (1=0-20%) | 5 (5=81-100%) | 0 | 0 | 0 | 0 | 0 | – |
| CCn1c(C)c(-c2cccc3c2OC(F)(F)O3)c(=O)c(C(=O)O)c1-c1ccc(Cl)c(Cl)c1 [Compound 223, 2-(3,4-dichlorophenyl)-5-(2,2-difluoro-1,3-benzodioxol-4-yl)-1-ethyl-6-methyl-4-oxo-pyridine-3-carboxylic acid] | 1 (1=0-20%) | 1 (1=0-20%) | 1 (1=0-20%) | 5 (5=81-100%) | 3 (3=41-60%) | 5 (5=81-100%) | 1 (1=0-20%) | 0 | 1 (1=0-20%) | 3 (3=41-60%) | 3 (3=41-60%) | – |
| CCn1c(C)c(-c2cc(F)ccc2OC)c(=O)c(C(=O)O)c1-c1ccc(Cl)c(Cl)c1 [Compound 235, 2-(3,4-dichlorophenyl)-1-ethyl-5-(5-fluoro-2-methoxy-phenyl)-6-methyl-4-oxo-pyridine-3-carboxylic acid] | 0 | 1 (1=0-20%) | 3 (3=41-60%) | 3 (3=41-60%) | 2 (2=21-40%) | 4 (4=61-80%) | 0 | 0 | 0 | 0 | 3 (3=41-60%) | – |
| CCn1c(C)c(-c2ccc(F)c(OC)c2F)c(=O)c(C(=O)O)c1-c1ccc(Cl)c(Cl)c1 [Compound 234, 2-(3,4-dichlorophenyl)-5-(2,4-difluoro-3-methoxy-phenyl)-1-ethyl-6-methyl-4-oxo-pyridine-3-carboxylic acid] | 5 (5=81-100%) | 3 (3=41-60%) | 4 (4=61-80%) | 4 (4=61-80%) | 4 (4=61-80%) | 5 (5=81-100%) | 2 (2=21-40%) | 4 (4=61-80%) | 2 (2=21-40%) | 5 (5=81-100%) | 3 (3=41-60%) | – |
| CCn1c(C)c(-c2ccc(C)cc2F)c(=O)c(C(=O)O)c1-c1ccc(Cl)c(Cl)c1 [Compound 236, 2-(3,4-dichlorophenyl)-1-ethyl-5-(2-fluoro-4-methyl-phenyl)-6-methyl-4-oxo-pyridine-3-carboxylic acid] | 3 (3=41-60%) | 2 (2=21-40%) | 5 (5=81-100%) | 5 (5=81-100%) | 2 (2=21-40%) | 5 (5=81-100%) | 1 (1=0-20%) | 4 (4=61-80%) | 1 (1=0-20%) | 4 (4=61-80%) | 2 (2=21-40%) | – |
| CCn1c(C)c(-c2ccnn2C)c(=O)c(C(=O)O)c1-c1ccc(Cl)c(Cl)c1 [Compound 241, 2-(3,4-dichlorophenyl)-1-ethyl-6-methyl-5-(2-methylpyrazol-3-yl)-4-oxo-pyridine-3-carboxylic acid] | 5 (5=81-100%) | 3 (3=41-60%) | 3 (3=41-60%) | 5 (5=81-100%) | 4 (4=61-80%) | 5 (5=81-100%) | 3 (3=41-60%) | 3 (3=41-60%) | 1 (1=0-20%) | 5 (5=81-100%) | 2 (2=21-40%) | – |
| CCn1c(C)c(-c2ccc(Cl)cc2)c(=O)c(C(=O)O)c1-c1ccc(F)cc1F [Compound 130, 5-(4-chlorophenyl)-2-(2,4-difluorophenyl)-1-ethyl-6-methyl-4-oxo-pyridine-3-carboxylic acid] | – | – | – | – | – | – | – | – | – | – | – | percentage damage to the plant, ABUTH [12]: 3 (3=41-60%); percentage damage to the plant, ECHCG [1]: 4 (4=61-80%); Post-emergence Test ZEAMX, percentage damage to the plant (five-point scale) (Zea mays (ZEAMX) [2]): 2 (2=21-40%); Post-emergence Test ABUTH, percentage damage to the plant (five-point scale) [13]: 3 (3=41-60%); Post-emergence Test IPOHE, percentage damage to the plant (five-point scale) [3]: 3 (3=41-60%); Post-emergence Test AMARE, percentage damage to the plant (five-point scale) [4]: 3 (3=41-60%); Post-emergence Test ECHCG, percentage damage to the plant (five-point scale) [14]: 3 (3=41-60%); Post-emergence Test SETFA, percentage damage to the plant (five-point scale) (Setaria faberi (SETFA) [5]): 4 (4=61-80%); percentage damage to the plant, AMARE [7]: 3 (3=41-60%); percentage damage to the plant, IPOHE [8]: 3 (3=41-60%); percentage damage to the plant, ZEAMX (Zea mays (ZEAMX) [9]): 3 (3=41-60%); percentage damage to the plant, SETFA (Setaria faberi (SETFA) [10]): 5 (5=81-100%) |
| CCn1c(C)c(-c2cc(Cl)cc(Cl)c2)c(=O)c(C(=O)O)c1-c1ccc(Cl)c(Cl)c1 [Compound 56, 2-(3,4-dichlorophenyl)-5-(3,5-dichlorophenyl)-1-ethyl-6-methyl-4-oxo-pyridine-3-carboxylic acid] | – | – | – | – | – | – | – | – | – | – | – | percentage damage to the plant, ABUTH [12]: 1 (1=0-20%); percentage damage to the plant, ECHCG [1]: 1 (1=0-20%); Post-emergence Test ZEAMX, percentage damage to the plant (five-point scale) (Zea mays (ZEAMX) [2]): 1 (1=0-20%); Post-emergence Test ABUTH, percentage damage to the plant (five-point scale) [13]: 1 (1=0-20%); Post-emergence Test IPOHE, percentage damage to the plant (five-point scale) [3]: 1 (1=0-20%); Post-emergence Test AMARE, percentage damage to the plant (five-point scale) [4]: 1 (1=0-20%); Post-emergence Test ECHCG, percentage damage to the plant (five-point scale) [14]: 1 (1=0-20%); Post-emergence Test SETFA, percentage damage to the plant (five-point scale) (Setaria faberi (SETFA) [5]): 1 (1=0-20%); percentage damage to the plant, AMARE [7]: 1 (1=0-20%); percentage damage to the plant, IPOHE [8]: 1 (1=0-20%); percentage damage to the plant, ZEAMX (Zea mays (ZEAMX) [9]): 1 (1=0-20%); percentage damage to the plant, SETFA (Setaria faberi (SETFA) [10]): 1 (1=0-20%) |

From US12660819B2, “Herbicidal derivatives” (SYNGENTA CROP PROTECTION AG, priority 2020, dated 2026)
